Consider one sequence from patent US20250352611A1, “METHODS FOR TREATING CATARACTS USING POLYPEPTIDES” (REJUKON BIOPHARM INC., priority 2022, published 2025).

Assay [1] deals with lens of cataract patients. Put plainly: Immersion of intact cataract lens, opacity by daily photographs. Further details: species or system human. The note with it: RJK001 0.5 mM in vehicle, 6 days, dark, room temperature. On the procedure: Next, we directly immersed the cataract lens removed during the operation in the buffer solution of the control group and the RJK001 protein solution of the experimental group. During the immersion for up to 6 days, the lens of the patient was photographed and recorded every day. More detailed description of the method is: Collect two intact eye lenses from cataract patients. To each tube was added 400 μL solution of vehicle (0.1% NaN3, 0.3% triton X-100, containing 1:1000 protease inhibitor cocktail) or RJK001 (0.5 mM) in vehicle which covered the lens tissue completely. Lens tissue was incubated in these solutions for 6 days in the dark at room temperature. After sealing the 48-well plate with parafilm to avoid liquid evaporation. Observe the state of the lens under the stereoscope every day and take pictures to record.

Another assay deals with T1, G3BP1-GFP protein (Mus musculus, UniProt P97855).
T1 construct: Genes of full-length mouse G3BP1, G3BP1-eGFP; thrombin protease cleavage site (C); His6 (C); made in house; host or cells: Escherichia coli rosetta (DE3)
Briefly: G3BP1-GFP phase separated droplet dissolution, confocal laser microscope. Particulars: 60 uM polypeptide, 20 uM G3BP1-GFP, pH7.5, 40s after addition. Type of assay: biochemical. On the procedure:
The prokaryotic expressed and purified G3BP1-GFP protein (pH7.5, 20 uM G3BP1-GFP) was induced to form phase separated droplets in vitro. Polypeptides Champ-E (RJK001), Champ-D (RJK002), Champ-K (RJK012) and Champ-Q (RJK005, […], SEQ ID NO: 34) (each of 60 uM) were added dropwise to the G3BP1-GFP droplets. The observation was performed continuously through a confocal laser microscope.
For G3BP1(FL)-eGFP, purified G3BP1(FL)-eGFP, Champ-E and its variants were changed were diluted to droplet buffer (50 mM Tris, pH 7.5, 150 mM NaCl) using SpinDesalt Column (smart). G3BP1(FL)-eGFP proteins were diluted to indicated concentrations and supplemented with PEG8000 with 1.25% final concentration for 10 min to induce phase separation as reported.

Assay [2] relates to crystallin aggregation from cataract patients. Briefly: Dissolution of crystallin aggregation in lens lysates from cataract patients. Further details: species or system human. The procedure: 30-50 ml lens lysates after phacoemulsification was collected from cataract patients with different disease progressions. Lanosterol was used as a benchmark medicament (see, Zhao, Ling, et al. “Lanosterol reverses protein aggregation in cataracts.” Nature 523. 7562 (2015): 607-611). […] Moreover, the concentration of the polypeptides provided herein (e.g., RJK001) was as less as 1/100 of the concentration of Lanosterol required to achieve the same dissolving effect.
30-50 ml Phacoemulsification of eye lens was collected from cataract patients with different disease progression. Let Phacoemulsification pass the 3KD protein concentration tube, and centrifuge at 4000 g for 20 minutes. centrifuge at 14000 g for 5 minutes after repeating the previous step to get the concentrate. Concentrate phacoemulsification to 200-300 ul every lens. Add 8 ul phacoemulsification concentrate in the following groups: 1, 8 ul crystalline concentrate; 2, 8 ul 1 mM lanosterol; 3, 8 ul 1 mM short peptide RJK001; 4, 8 ul protein solubilization buffer. Use a 20 ul pipette tip to mix them well, then stand still at RT for 20 min.

For assay [3], the system named is γD (W42D) aggregates in the SH-SY5Y cell. Put plainly: γD (W42D) aggregates in SH-SY5Y cells, live imaging and CellProfiler analysis. The class given is cell-based. Particulars: 20 uM, added every 4 hours for a total of 24 hours. The procedure: Cells were grown in a 12-well plate (1×10^5 cells per well) for 24 hours and transfected with γD (W42D) plasmid using EZtrans transfection reagent. 24 hours after transfection, Champ peptides RJK001 (final concentration of 20 uM) and RJK0012 (final concentration of 10 uM and 20 uM) were added into SH-SY5Y cell culture medium every 4 hours for a total of 24 hours. The effect of RJK001 and RJK012 polypeptide on the γD (W42D) aggregates in the SH-SY5Y cell mode were analyzed using a custom CellProfiler software. Briefly, cell bodies were then segmented and identified by the GFP fluorescence channel images and tracing outward to the limits of the cytoplasmic (using a diameter cutoff of 100-300 pixels). The cell bodies were used as masks to eliminate imaging artifacts outside of cell boundaries, such as background fluorescence or dead cells. After masking, punctate structures were enhanced by image processing for speckle-like features that were 10 pixels in diameter for SH-SY5Y cells and these punctate structures were then annotated as features such as γD (W42D) puncta. Finally, the total image area which was enclosed in each of the identified features (number of cell and punctate) was calculated and output to spreadsheets. At least 200 cells per sample were analyzed. […]
Granules screen and assay images were segmented and image features quantified using a custom CellProfiler and ImageJ software. […] The effect of RJK001 and RJK012 polypeptide on the γD ([…]) aggregates in the SH-SY5Y cell mode were analyzed using a custom CellProfiler software. Briefly, cell bodies were then segmented and identified by the GFP fluorescence channel images and tracing outward to the limits of the cytoplasmic (using a diameter cutoff of 100-300 pixels). The cell bodies were used as masks to eliminate imaging artifacts outside of cell boundaries, such as background fluorescence or dead cells. […] Finally, the total image area which was enclosed in each of the identified features (number of cell and punctate) was calculated and output to spreadsheets. At least 200 cells per sample were analyzed.

Regarding “TEPQEESEEEVEEPEERQQTPEVVPDDSGTFYDQTVSNDLE [RJK001, polypeptide with hydrophilic and hydrophobic segment, expressed in E. coli]”, the “opacity of the lens” value in assay [1] is reported as “reduced opacity of the lens of cataract patients”. In the assay with G3BP1-GFP protein, the “dissolution of G3BP1-GFP phase separated droplets” value is “significantly dissolved the phase separated droplets”. In addition, in assay [2] (lens lysates after phacoemulsification, RT 20 min), the “dissolving crystallin aggregation in lens lysates” value is “could effectively dissolve the crystallin aggregation from cataract patients”. The “concentration relative to the concentration of Lanosterol required to achieve the same dissolving effect” value in assay [2] (lens lysates from cataract patients, Lanosterol as benchmark) is 1/100. Also, the “number of γD (W42D) aggregates in the SH-SY5Y cell” value in assay [3] is listed as “reduced the number of γD (W42D) aggregates in the SH-SY5Y cell in a time-dependent manner until 12 hours”.
